Like-named read-outs stand apart in the source and are kept apart here.

The values below come from US12503510B2, “Small shedding blocking agents” (BIOND BIOLOGICS LTD., priority 2019, dated 2025).

For series [1], the system named is human PBMCs. The experiment in a line: Soluble CD28 generation in SEB or CMV stimulated PBMCs, human CD28 ELISA. It is filed as cell-based. The conditions noted are these: SEB 1 ng/mL; inhibitor 0.01-1 μM. The protocol: Protease Inhibitors—Protease inhibitors were added at the indicated concentrations at the start of each experiment. In week long assays another portion of the inhibitors was added after 3 days at the final concentration. Protease inhibitors used are TAPI-1 (Cayman, Cat. No. 18505), GM6001 (Santa Cruz, Cat. No. SC-203979), TMI-1 (Sigma, Cat. No. PZ0336) and GI254023X (Sigma, Cat. No. SML0789). Where mentioned the protease cocktail was composed with a mixture of TAPI-1 and GM6001 at equimolar ratio.
A general note: An ELISA detects its analyte on a solid surface through an enzyme-linked reagent.

For series [2], the system named is human PBMCs.
Another series relates to SCC-25 cells. Put plainly: Co-culture of SCC-25 cancer cell line with monocytes in trans-well assay. It is filed as cell-based, human. The protocol: Co-culture of SCC-25 cancer cell line with monocytes in trans-well based assay—4×10^4 SCC-25 cells were plated on the bottom of 24 well plate with 1×10^5 monocytes placed on cell culture insert (Millipore, Cat. No. MCHT241148) with or without indicated treatments for 4 days in starvation media without serum.
Next, cells of the head and neck cancer cell line SCC-25 were incubated either alone or with monocytes in a trans-well assay. SCC-25 cells grown alone were administered IL-6 as a positive control, and indeed cell proliferation, as measured by MTT (FIG. 9C, upper) and as measured by % confluency (FIG. 9C, lower), was increased.

Series [3] relates to autologous monocytes and CD3 T cells. Put plainly: Autologous monocytes CD3 MLR with CMV peptide. It is filed as cell-based, human. How it is done:
The mixed cells were stimulated for 5 days with CMV peptide (0.5 μg/mL) with and without increasing concentrations of recombinant human sCD28.
The MLR was run as before only with and without sCD28 and with and without an anti-PD1 antibody (MK3475, 5 μg/mL) (FIG. 8B).

The test system of series [4] is human PBMCs. Put plainly: SEB or CMV stimulated PBMCs with anti-PD1 and soluble CD28. In kind it is cell-based.
For series [5], the system named is human PBMCs. Put plainly: CMV stimulation of PBMCs with ectopic recombinant human CD28 or CTLA-4, cytokine ELISA/multiplex. It is filed as cell-based. The conditions noted are these: CMV 0.5 μg/mL.
The subject of series [6] is human PBMCs. The experiment in a line: Lymphocyte clustering of SEB stimulated PBMCs (IncuCyte). The conditions noted are these: SEB 1 ng/mL. In kind it is cell-based. How it is done: Next, human PBMCs were stimulated with SEB (1 ng/mL) without or in the presence of recombinant human CD28. Human IgG was used as control. Lymphocyte clustering, a hallmark of immune activation was monitored using the IncuCyte® S3 Live-Cell, with pictures taken every 12 hours. […] It is well established that during in-vitro immune response antigen presenting cells (APC) cluster with one another and with other cell types, and clustering is essential for the antigen specific activation of resting lymphocytes.

For the next series, the system named is isolated human monocytes. The experiment in a line: Stimulation of monocytes with recombinant human CD28 (IDO, PD-L1, PD-L2). In kind it is cell-based. The conditions noted are these: IFNγ 1000 U/mL, recombinant human CD28 10 μg/mL. The protocol:
Stimulation of monocytes with recombinant human CD28—1.5×10^6 monocytes were plated at 24 well plate in RPMI medium with […] IFN gamma (R&D system, Cat. No. 285-IF) in the presence of recombinant human CD28 at the indicated concentrations for 48 hrs. The generated cell populations were tested for the indicated phenotypes by FACS analysis of relevant markers (IDO, PD-L1 and PD-L2) and by analysis of secretion of characteristic cytokines (IL-6).
The enzyme indoleamine 2,3-dioxygenase (IDO) has been implicated in immune modulation through its ability to catabolize the essential amino acid Tryptophan. It is expressed by different immune cells and also by many cancer cells. Tryptophan shortage inhibits T lymphocytes maturation and proliferation, while Kynurenine, the end product of tryptophan catabolism, is also known as immunosuppressive metabolite that promotes immune tolerance in various physiological and pathophysiological conditions. To test the effect of sCD28 on IDO, isolated human monocytes were stimulated for 48 hr with IFNγ (1000 U/mL) in the presence of control human IgG or with recombinant human CD28 (10 μg/mL). After incubation, the monocytes were stained intracellularly for human IDO (FIG. 7E). To facilitate intracellular staining the cells were fixed and permeabilized with BD Cytofix/Cytoperm Buffer Kit.
In order to elucidate the mechanism by which sCD28 inhibits the pro-activation effect of anti-PD-1 therapy, the expression of PD-1 ligands on immune cells in the presence of sCD28 was examined. Isolated human monocytes were stimulated for 48 hours with IFNγ (1000 U/mL) in the presence of control human IgG (10 μg/mL) or with recombinant human CD28 (10 μg/mL). After incubation the monocytes were stained for PD-L1 (FIG. 8C, left) and PD-L2 (FIG. 8C, right).

A further series concerns PBMC of cancer patients. Put plainly: SEB stimulated PBMC of cancer patients with sCD28 and MK-3475. In kind it is cell-based, human. The conditions noted are these: SEB 5 ng/mL, 3 days.
For series [7], the system named is isolated CD3 human T cells. Put plainly: T cells stimulation with OKT3 and CD80-Fc, IFN gamma. The conditions noted are these: OKT3 2 μg/mL. In kind it is cell-based. The protocol:
T cells stimulation with OKT3—0.1×10^6 isolated CD3 T cells (from healthy donors) were stimulated with indicated amount of anti-CD3 clone OKT3 for 48-72 hr at 37° C. When stated recombinant human CD80-Fc (2 μg/mL, R&D system) was added in soluble form. Antibodies or VHHs to CD28 or controls were added at the indicated concentration in soluble form.
CD80 is one of the two main ligands for mCD28 along with CD86. The extracellular domain of CD80 fused to an Fc moiety has been used as an immune stimulatory molecule and is under investigation as a cancer therapy. In order to examine the effect of sCD28 on CD80-Fc efficacy, isolated CD3 human T cells were stimulated with plate bound anti-CD3 antibody (OKT3, 2 μg/mL) in the presence of 2 μg/mL soluble recombinant human CD80-Fc.

The test system of another series is isolated PBMCs. Put plainly: CMV stimulated PBMC with constant sCD28 and CD80-Fc titration. It is filed as cell-based, human. The conditions noted are these: CMV peptide 3 days.
The subject of series [8] is H22 hepatocellular carcinoma cells. Put plainly: H22 syngeneic mouse model. It is filed as in vivo. The conditions noted are these: Balb/c mice, H22 allograft, with anti-PD-1.
The mark [9] stands for this setting: CMV peptide 0.5 μg/mL, 5 days, increasing sCD28.

Regarding `CNC(=O)[C@@H](NC(=O)[C@H](CCCc1ccccc1)[C@H](C)N(O)C=O)C(C)(C)C` [GI254023X], the “sCD28 release from activated immune cells” value in the series on human PBMCs [1] was “almost complete inhibition of sCD28 release”. Moreover, the “viability of the immune cells (MTT)” value with human PBMCs [2] (SEB 1 ng/mL, with vs without ADAM inhibitor) is given as “no significant difference”.

Turning to `CC#CCOc1ccc(S(=O)(=O)N2CCSC(C)(C)[C@@H]2C(=O)NO)cc1` [TMI-1], in the series on human PBMCs [2], the “viability of the immune cells (MTT)” value was “no significant difference”.

In the case of “IL-6: cytokine given to SCC-25 cells as a positive control [reference compound]”, in the series with SCC-25 cells (SCC-25 cells grown alone, positive control), the “cell proliferation (MTT and % confluency)” value was “increased”.

Turning to “Pembrolizumab [MK-3475, reference compound]”, in series [3] (MK3475 5 μg/mL), the IFN gamma secretion result is given as “increased IFN gamma secretion” and the TGF beta secretion entry was “decreased TGF beta secretion”. Besides, in the series with human PBMCs [4] (MK3475 5 μg/mL, 3 days), the “proinflammatory cytokine secretion (IFN gamma and IL-2)” value is given as “increased proinflammatory cytokine secretion”.

In the case of “sCD28: recombinant human CD28 lacking the transmembrane and cytoplasmic domains”, in the series with human PBMCs [5], the IFN gamma secretion entry is “dose-dependent inhibition of IFN gamma secretion”, the IL-6 secretion result was “increase IL-6 cytokine secretion” and the interleukin-10 secretion entry is on record as “elevation”. In addition, the lymphocyte cluster formation result in the series with human PBMCs [6] was “diminish the amount and size of cluster formation”. In [3] (setting [9]), the IFN gamma secretion result is on record as “inhibit IFN gamma secretion”, the IL-1B secretion result was “increasing the secretion”, the IL-10 secretion entry is reported as “increasing the secretion” and the TGF beta secretion result is reported as “increasing the secretion”. Further, in [3] (MK3475 5 μg/mL with sCD28), the “effect of MK-3475 in the presence of sCD28” value is “significantly reduced”. In the series on isolated human monocytes (48 hours), the “PD-L1 expression on monocytes” value is listed as “upregulated” and the “PD-L2 expression on monocytes” value is “upregulated”. The “IDO expression in monocytes” value in the series on isolated human monocytes (48 hr) is given as “strongly enhanced IDO expression”. In addition, in the series on human PBMCs [4] (sCD28 2 and 10 μg/mL combined with MK3475 5 μg/mL), the “effect on MK-3475 immune activation” value is on record as “abrogated completely this immune activation effect”. The “effect on MK-3475” value in the series on PBMC of cancer patients (combination) is on record as “rendered the effect of MK-3475 nonexistent”. Besides, the “concentration of human IFN gamma in the supernatant” value in the series on PBMC of cancer patients (with or without MK-3475) is “greatly reduced”. In the series on SCC-25 cells (coculture with monocytes), the “cell proliferation (MTT and % confluency)” value is listed as “by far the greatest increase”. Besides, the “effect on CD80-Fc secondary activation” value in series [7] (constant CD80-Fc, titration of sCD28) was “counteracted the secondary activation effect of the CD80-Fc”. For the same molecule, the “CD80-Fc needed for immune response in presence of sCD28” value with isolated PBMCs is “an increased amount of CD80-Fc was required”. In addition, the “effect on anti-PD-1 therapy” value in series [8] is “nearly completely abrogated in two of the mice”.

B1: CD80-Fc: extracellular domain of CD80 fused to an Fc moiety (protein)
chain: VIHVTKEVKEVATLSCGHNVSVEELAQTRIYWQKEKKMVLTMMSGDMNIWPEYKNRTIFDITNNLSIVILALRPSDEGTYECVVLKYEKDAFKREHLAEVTLSVKADFPTPSISDFEIPTSNIRRIICSTSGGFPEPHLSWLENGEELNAINTTVSQDPETELYAVSSKLDFNMTTNHSFMCLIKYGHLRVNQTFNWNTTKQEHFPDN
modifications: left off: a dimerising Fc or GST
notes: extracellular domain of CD80 fused to an Fc moiety
As for B1, the IFN gamma secretion result in [7] (CD80-Fc 2 μg/mL) is recorded as “increased IFN gamma secretion”.
